The results in this text go back to patent US11786519B2, “Apoptosis-inducing agents for the treatment of cancer and immune and autoimmune diseases” (AbbVie Inc., priority 2011, dated 2023).

The Ki is a dissociation constant, usually derived from enzyme kinetics or from competition with a known ligand. A low value points to tighter binding. By EC50 is commonly meant the midpoint of the concentration-response curve.

Where only a bound is given, the exact number is not on record here.

In one test the target is Bcl-xL (Homo sapiens, UniProt Q07817). The experiment in a line: TR-FRET binding assay, competition with F-Bak for Bcl-xL. As to conditions: competition with F-Bak probe, GST-Bcl-xL. How it is done:
Determination of the utility of compounds having Formula (I) as binders to and inhibitors of anti-apoptotic Bcl-xL proteins was performed using the Time Resolved-Fluorescence Resonance Energy Transfer (TR-FRET) Assay. Tb-anti-GST antibody was purchased from Invitrogen (Catalog No. PV4216).
The measurement of competition of compounds of the invention with F-Bak for a Bcl-2 family protein (Bcl-xL) binding site using a Time Resolved Fluorescence Resonance Energy Transfer (TR-FRET) binding assay:
Test compounds were serially diluted in DMSO starting at 50 µM (2× starting concentration; 10% DMSO) and 10 μL transferred into a 384-well plate.
The samples are then mixed on a shaker for 1 minute then incubated for an additional 2 hours at room temperature. For each assay plate, a probe/antibody and protein/antibody/probe mixture were included as a negative and a positive control, respectively. Fluorescence was measured on the ENVISION plate reader (Perkin Elmer) using a 340/35 nm excitation filter and 520/525 (F-Bak) and 495/510 nm ([…]) emission filters. Dissociation constants (Ki) were determined using Wang's equation (Wang, Z. X. An exact mathematical expression for describing competitive binding of two different ligands to a protein molecule. FEBS Lett. 1995 360:111-114). The TR-FRET assay can be performed in the presence of varying concentrations of human serum (HS) or fetal bovine serum (FBS).
In general terms: In TR-FRET formats the signal depends on donor and acceptor labels being close together.

In test [1] the target is mouse FL5.12 cells transfected with Bcl-xL (Homo sapiens, UniProt Q07817). Description: FL5.12 cellular assay (cell viability, CellTiter-Glo). The test is classed as cell-based. As to conditions: IL-3-depleted, 3% FBS assay media, 24 hours; read-out: FL5.12 Bcl-xL, −IL3, EC50. An excerpt: Individual determinations were the result of duplicate values.
mouse FL5.12 cells transfected with Bcl-xL, sequence (Q07817 whole entry, change not shown): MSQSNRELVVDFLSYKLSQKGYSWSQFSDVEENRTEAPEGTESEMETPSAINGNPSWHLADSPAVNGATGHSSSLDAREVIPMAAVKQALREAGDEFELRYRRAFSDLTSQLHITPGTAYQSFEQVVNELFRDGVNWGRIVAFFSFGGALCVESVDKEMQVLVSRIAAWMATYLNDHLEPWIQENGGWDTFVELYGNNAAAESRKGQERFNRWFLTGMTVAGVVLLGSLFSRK

Bcl-xL, sequence (Q07817 whole entry): as the sequence (Q07817 whole entry, change not shown) above

For the compound `Cc1c(-c2ccc(N3CCc4cccc(C(=O)Nc5nc6ccccc6s5)c4C3)nc2C(=O)O)cnn1CC1(OCCS(C)(=O)=O)CCCCCCC1` [Example 65, 6-[8-(1,3-benzothiazol-2-ylcarbamoyl)-3,4-dihydroisoquinolin-2(1H)-yl]-3-[5-methyl-1-({1-[2-(methylsulfonyl)ethoxy]cyclooctyl}methyl)-1H-pyrazol-4-yl]pyridine-2-carboxylic acid], the Ki at Bcl-xL was below 0.1 nM. The EC50 in test [1] came out at 1 nM. In the case of `Cc1c(-c2ccc(N3CCc4cccc(C(=O)Nc5nc6ccccc6s5)c4C3)nc2-c2nn[nH]n2)cnn1CC12CC3CC(CC(C3)C1)C2` [Example 19, N-(1,3-benzothiazol-2-yl)-2-{5-[5-methyl-1-(tricyclo[3.3.1.1^3,7]dec-1-ylmethyl)-1H-pyrazol-4-yl]-6-(2H-tetrazol-5-yl)pyridin-2-yl}-1,2,3,4-tetrahydroisoquinoline-8-carboxamide], the Ki at Bcl-xL came out at 0.1 nM. In test [1], the EC50 is 3 nM.

With `N#Cc1c(-c2ccc(N3CCc4cccc(C(=O)Nc5nc6ccccc6s5)c4C3)nc2C(=O)O)cnn1CC12CC3CC(CC(C3)C1)C2` [Example 29, 6-[8-(1,3-benzothiazol-2-ylcarbamoyl)-3,4-dihydroisoquinolin-2(1H)-yl]-3-{5-cyano-1-[tricyclo[3.3.1.1^3,7]dec-1-ylmethyl]-1H-pyrazol-4-yl}pyridine-2-carboxylic acid], the Ki on Bcl-xL is below 0.1 nM. Besides, the EC50 in test [1] is 3 nM.

On Bcl-xL, `Cc1c(-c2ccc(N3CCc4cccc(C(=O)Nc5nc6ccncc6s5)c4C3)nc2C(=O)O)cnn1CC12CC3CC(CC(C3)C1)C2` [Example 78, 3-[5-methyl-1-(tricyclo[3.3.1.1^3,7]dec-1-ylmethyl)-1H-pyrazol-4-yl]-6-[8-([1,3]thiazolo[5,4-c]pyridin-2-ylcarbamoyl)-3,4-dihydroisoquinolin-2(1H)-yl]pyridine-2-carboxylic acid] returned a Ki below 0.1 nM. Further, the EC50 in test [1] was 3 nM. Turning to `COCCOCCOC12CC3CC(CC(Cn4ncc(-c5ccc(N6CCc7cccc(C(=O)Nc8nc9ccccc9s8)c7C6)nc5C(=O)O)c4C)(C3)C1)C2` [Example 63, 6-[8-(1,3-benzothiazol-2-ylcarbamoyl)-3,4-dihydroisoquinolin-2(1H)-yl]-3-[1-({3-[2-(2-methoxyethoxy)ethoxy]tricyclo[3.3.1.1^3,7]dec-1-yl}methyl)-5-methyl-1H-pyrazol-4-yl]pyridine-2-carboxylic acid], the Ki at Bcl-xL is below 0.1 nM. The EC50 in test [1] is 3 nM.

In the case of `Cc1c(-c2ccc(N3CCc4cccc(C(=O)Nc5nc6ccccc6s5)c4C3)nc2C(=O)NS(C)(=O)=O)cnn1CC12CC3CC(CC(C3)C1)C2` [Example 17, N-(1,3-benzothiazol-2-yl)-2-{6-[(methylsulfonyl)carbamoyl]-5-[5-methyl-1-(tricyclo[3.3.1.1^3,7]dec-1-ylmethyl)-1H-pyrazol-4-yl]pyridin-2-yl}-1,2,3,4-tetrahydroisoquinoline-8-carboxamide], on Bcl-xL, the Ki is below 0.1 nM. Besides, the EC50 in test [1] amounted to 1 nM.

In turn, `COC12CC3CC(CC(Cn4ncc(-c5ccc(N6CCc7cccc(C(=O)Nc8nc9ccccc9s8)c7C6)nc5C(=O)NS(C)(=O)=O)c4C)(C3)C1)C2` [Example 37, N-(1,3-benzothiazol-2-yl)-2-{5-(1-{[3-methoxytricyclo[3.3.1.1^3,7]dec-1-yl]methyl}-5-methyl-1H-pyrazol-4-yl)-6-[(methylsulfonyl)carbamoyl]pyridin-2-yl}-1,2,3,4-tetrahydroisoquinoline-8-carboxamide] returned a Ki on Bcl-xL below 0.1 nM. Also, the EC50 in test [1] was determined as 3 nM.

`Cc1c(-c2ccc(N3CCc4cccc(C(=O)Nc5nc6ccccc6s5)c4C3)nc2C(=O)O)nnn1CC12CC3CC(CC(C3)C1)C2` [Example 57, 6-[8-(1,3-benzothiazol-2-ylcarbamoyl)-3,4-dihydroisoquinolin-2(1H)-yl]-3-[5-methyl-1-(tricyclo[3.3.1.1^3,7]dec-1-ylmethyl)-1H-1,2,3-triazol-4-yl]pyridine-2-carboxylic acid] gave a Ki on Bcl-xL below 0.1 nM.
